Measured values taken from patent US20060247255A1, “Method for preparing a stable gatifloxacin composition” (priority 2005, published 2006).

Experiment: Polymorphic conversion testing after compression at 1 ton pressure and storage in different environments (DSC/FT-IR)
Assay type: physicochemical
Experimental: Polymorphic Conversion Testing after Compression at 1 Ton Pressure and Storage in Different Environments.
Compacts of glatifloxacin anhydrous and gatifloxacin hemihydrate were prepared and placed in chambers that were equilibrated as follows:
(i) 25° C. and 21% relative humidity (RH);
(iii) 40° C. and 21% RH; and
Compacts of glatifloxacin anhydrous and gatifloxacin hemihydrate were evaluated by DSC and FT-IR immediately after compression, after 2 days of exposure under the above conditions, and after 6 or 7 days of exposure.
Conversion is identified as a change in DSC thermogram or FT-IR pattern.

[1] = 6 or 7 Days at 25° C. and 21% RH
[2] = 6 or 7 Days at 25° C. and 75% RH
[3] = 6 or 7 Days at 40° C. and 21% RH
[4] = 6 or 7 Days at 40° C. and 75% RH

Conversion (change in DSC thermogram) (2 Days at 25° C. and 21% RH)	Conversion (change in FT-IR pattern) (2 Days at 25° C. and 21% RH)	Conversion (change in DSC thermogram) (2 Days at 25° C. and 75% RH)	Conversion (change in FT-IR pattern) (2 Days at 25° C. and 75% RH)	Conversion (change in DSC thermogram) (2 Days at 40° C. and 21% RH)	Conversion (change in FT-IR pattern) (2 Days at 40° C. and 21% RH)	Conversion (change in DSC thermogram) (2 Days at 40° C. and 75% RH)	Conversion (change in FT-IR pattern) (2 Days at 40° C. and 75% RH)	Conversion (change in DSC thermogram) [1]	Conversion (change in FT-IR pattern) [1]	Conversion (change in DSC thermogram) [2]	Conversion (change in FT-IR pattern) [2]	Conversion (change in DSC thermogram) [3]	Conversion (change in FT-IR pattern) [3]	Physical stability [3]	Conversion (change in DSC thermogram) [4]	Conversion (change in FT-IR pattern) [4]	Conversion (change in DSC thermogram) (Immediately after compression)	Conversion (change in FT-IR pattern) (Immediately after compression)	Compound	other results
No/No	No/No	No/No	No/No	No/No	No/No	Yes/Yes	Yes/Yes	No/No	No/No	Yes/Yes	Yes/Yes	No/No	No/No	did not effect	Yes/Yes	Yes/Yes	No/No	No/No	COc1c(N2CCNC(C)C2)c(F)cc2c(=O)c(C(=O)O)cn(C3CC3)c12 (stereo not shown) [Gatifloxacin Anhydrous, 1-cyclopropyl-6-fluoro-1,4-dihydro-8-methoxy-7-(3-methyl-1-piperazinyl)-4-oxo-3-quinolinecarboxylic acid]	Physical stability (approximately 75% RH for a period of 2 days): deleteriously effects the physical stability
No/No	No/No	No/No	No/No	No/No	No/No	No/No	No/No	No/No	No/No	Yes	No	No/No	No/No	did not effect	Yes/Yes	Yes/Yes	No/No	No/No	COc1c(N2CCNC(C)C2)c(F)cc2c(=O)c(C(=O)O)cn(C3CC3)c12 (stereo not shown) [Gatifloxacin Hemihydrate, 1-cyclopropyl-6-fluoro-1,4-dihydro-8-methoxy-7-(3-methyl-1-piperazinyl)-4-oxo-3-quinolinecarboxylic acid]	Physical stability (approximately 75% RH for a period of at least 6 days): deleteriously effects the physical stability
